Results as given in patent US20110305703A1, “ISOLATED VEGF-C AND VEGF-D PEPTIDES AND USES THEREOF” (Vegenics Pty Limited, priority 2008, published 2011).

system: VEGF-D neutralizing monoclonal antibody mAb 4A5 (VDnmAb); assay: ELISA of biotinylated synthetic peptides on streptavidin plates for VDnmAb binding; conditions: 2nd peptide library; 10 pmol peptide; VDnmAb 2 μg/ml; signal more than two-fold greater than background considered positive
Description: Peptides. A series of synthetic 15-mer peptides (peptides 1 to 35, SEQ ID NOs: 4 to 38 in FIG. 4B, which overlap each other by 12 amino acids) were synthesized (Mimotopes Pty Ltd, Melbourne, Australia). The peptides encompassed the VHD of human VEGF-D (SEQ ID NO: 3, FIG. 4A). Peptide 36 (SEQ ID NO: 39) represented an artificial sequence including a FLAG tag as a positive control for a commercial anti-FLAG mAb (M2; Sigma) that was used as control for non-specific binding to peptides 1 to 35 (SEQ ID NOs: 4 to 38). Biotin was included at the N-terminal of each peptide during synthesis, except that peptide 1 (SEQ ID NO: 4, representing the N-terminal of the VHD) has biotin at the C-terminal. The four-amino acid linker “SGSG” was introduced between the N-terminal of each peptide sequence and biotin to provide more flexibility to peptides after immobilization on streptavidin plates, except peptide 1 (SEQ ID NO: 4) that included the C-terminal linker “GSG”.
ELISA. Reacti-Bind streptavidin high-binding-capacity coated plates (Pierce) were coated with 10 pmol of each peptide in PBS, blocked with 5% milk in PBS-0.1% Tween 20, and incubated with 100 μl of VEGF-D neutralizing monoclonal antibody mAb 4A5 (referred to herein as VDnmAb) or M2 at 2 μg/ml for 1 h at room temperature. Bound mAb was detected with goat anti-mouse IgG coupled with HRP. ABTS was used as the substrate, and the absorbance was read at 405 nm in a multiwell plate reader.
In this 2nd peptide library, biotin was included at the N-terminal of each peptide, and the four-amino acid linker “SGSG” was introduced between each peptide sequence and the biotin residue to provide more flexibility to peptides after immobilization on streptavidin plates. ELISA-based analysis of the 2nd peptide library was carried out as for the 1st peptide library.
Peptide 67 (SEQ ID NO: 141, the same as peptide 36, SEQ ID NO: 39 from the 1st library) and peptide 68 (SEQ ID NO: 142), both containing the FLAG tag, were used as controls. In this 3rd peptide library, biotin was included at the N-terminal of each peptide except peptides 6, 12 and 14 (SEQ ID NOs: 80, 86 and 88) which have C-terminal biotin residues. To provide more flexibility to peptides after immobilization on streptavidin plates, an amino acid linker was introduced between biotin residues and the peptide sequence: “SGSG” for N-terminal biotin; “SGS” for C-terminal biotin. ELISA-based analysis of the 3rd peptide library was carried out as for the 1st peptide library, described in Example 1.

Row | VDnmAb binding to peptide (ELISA signal, absorbance at 405 nm) | Substance
1 | more effect | peptide 25 (SEQ ID NO: 64): 2nd library: mutation of two of the cysteine residues to serine (SGSGVNVFRCGGSSNEESL)
2 | more effect | peptide 26 (SEQ ID NO: 65): 2nd library: mutation of two of the cysteine residues to serine (SGSGVNVFRSGGSCNEESL)
3 | more effect | peptide 27 (SEQ ID NO: 66): 2nd library: mutation of two of the cysteine residues to serine (SGSGVNVFRSGGCSNEESL)
4 | significant loss of antibody binding | peptide 28 (SEQ ID NO: 67): 2nd library: mutation of all three cysteine residues to serine (SGSGVNVFRSGGSSNEESL)

Row | Substance | VDnmAb binding to peptide (ELISA signal, absorbance at 405 nm)
5 | peptide 23 (SEQ ID NO: 62): 2nd library: single mutation of cysteine in the binding region, C145S (SGSGVNVFRCGGSCNEESL) | very minor or no effect on VDnmAb binding
6 | peptide 24 (SEQ ID NO: 63): 2nd library: single mutation of cysteine in the binding region, C142S (SGSGVNVFRSGGCCNEESL) | very minor or no effect on VDnmAb binding

same assay, conditions: 3rd peptide library; 10 pmol peptide; VDnmAb 2 μg/ml; signal more than two-fold over background considered positive

Row | Substance | VDnmAb binding to peptide (ELISA signal, absorbance at 405 nm)
7 | peptide 22 (SEQ ID NO: 96): 3rd library: deletion of R141 (SGSGVFCGGCCNEESL) | little or no effect on VDnmAb binding
8 | peptide 23 (SEQ ID NO: 97): 3rd library: mutation N147Q (SGSGVFRCGGCCQEESL) | loss, even complete loss, of VDnmAb binding
9 | peptide 24 (SEQ ID NO: 98): 3rd library: mutation N147A (SGSGVFRCGGCCAEESL) | loss, even complete loss, of VDnmAb binding
10 | peptide 25 (SEQ ID NO: 99): 3rd library: variant with deletion of one of N147, E148, E149, S150 (SGSGVFRCGGCCEESL) | loss of VDnmAb binding
11 | peptide 26 (SEQ ID NO: 100): 3rd library: mutation E148D (SGSGVFRCGGCCNDESL) | loss, even complete loss, of VDnmAb binding
12 | peptide 27 (SEQ ID NO: 101): 3rd library: mutation E148A (SGSGVFRCGGCCNAESL) | loss, even complete loss, of VDnmAb binding
13 | peptide 28 (SEQ ID NO: 102): 3rd library: variant with deletion of one of N147, E148, E149, S150 (SGSGVFRCGGCCNESL) | loss of VDnmAb binding
14 | peptide 29 (SEQ ID NO: 103): 3rd library: mutation E149D (SGSGVFRCGGCCNEDSL) | loss, even complete loss, of VDnmAb binding
15 | peptide 30 (SEQ ID NO: 104): 3rd library: mutation E149A (SGSGVFRCGGCCNEASL) | loss, even complete loss, of VDnmAb binding
16 | peptide 31 (SEQ ID NO: 105): 3rd library: double mutation E148D/E149D (SGSGVFRCGGCCNDDSL) | loss, even complete loss, of VDnmAb binding
17 | peptide 32 (SEQ ID NO: 106): 3rd library: double mutation E148A/E149A (SGSGVFRCGGCCNAASL) | loss, even complete loss, of VDnmAb binding
18 | peptide 33 (SEQ ID NO: 107): 3rd library: variant with deletion of one of N147, E148, E149, S150 (SGSGVFRCGGCCNSL) | loss of VDnmAb binding
